Test results as given in ChEMBL document CHEMBL6121054, “Discovery of Metabolic Reprogramming 2-Quinolones as Effective Antimicrobials for MRSA-Infected Wound Therapy” (J Med Chem, 2025).
Converted amounts (≈) assume the structure as drawn. The source made the active and inactive calls. No cut-off for these calls is given here.

Tests used:
Staphylococcus aureus [1] = assay: Antibacterial activity against Staphylococcus aureus DU1090 incubated for 16 to 24 hrs by broth microdilution method; type: functional; conditions: time 16-24 hrs
Staphylococcus aureus [2] = assay: Bactericidal activity against Staphylococcus aureus DU1090; type: functional
Staphylococcus aureus [3] = assay: Bactericidal activity against Staphylococcus aureus ATCC 25904; type: functional
Staphylococcus aureus [4] = assay: Antibacterial activity against Staphylococcus aureus ATCC 29213 incubated for 16 to 24 hrs by broth microdilution method; type: functional; conditions: time 16-24 hrs
Staphylococcus aureus [5] = assay: Bactericidal activity against Staphylococcus aureus ATCC 29213; type: functional
Staphylococcus aureus [6] = assay: Effect on pyrimidine metabolism in Staphylococcus aureus USA300 at 4 times MIC by KEGG analysis; type: functional, organism-based
Staphylococcus aureus [7] = assay: Disruption of cell membrane integrity in Staphylococcus aureus USA300 assessed as visible cavity formation on surface at 4 to 8 times MIC by TEM/SEM analysis; type: functional, organism-based
Staphylococcus aureus [8] = assay: Bactericidal activity against methicillin-resistant Staphylococcus aureus USA300 at 4 times MIC measured for 12 to 24 hrs by time-kill assay; type: functional, organism-based; conditions: time 12-24 hrs
Staphylococcus aureus [9] = assay: Antibacterial activity against Staphylococcus aureus USA300 assessed as acceleration of TCA cycle measured by increase in icd mRNA level upto 0.25 ug/ml incubated for 6 hrs by RT-PCR analysis; type: functional, organism-based; conditions: dose <= 0.25 µg/ml
Staphylococcus aureus [10] = assay: Antibacterial activity against methicillin-resistant Staphylococcus aureus infected in BALB/c mouse wound model assessed as reversal of inflammation-induced TNF-alpha level in wound at 20 to 80 mg/kg administered topically on days 0, 3 and 6 measured after 12 days by ELISA; type: functional, organism-based; conditions: dose 20-80 mg/kg, route top, time 12.0 day
Klebsiella pneumoniae [11] = assay: Antibacterial activity against Klebsiella pneumoniae 13b5 incubated for 16 to 24 hrs by broth microdilution method; type: functional; conditions: time 16-24 hrs
Staphylococcus aureus [12] = assay: Bactericidal activity against methicillin-resistant Staphylococcus aureus USA300 at >= 1 ug/ml measured upto 24 hrs by time-kill assay relative to control; type: functional; conditions: dose >= 1 µg/ml
Escherichia coli = assay: Bactericidal activity against Escherichia coli ATCC ZJ487; type: functional
Staphylococcus aureus [13] = assay: Impairment of antioxidant defense system in Staphylococcus aureus USA300 upto 0.25 ug/ml by WST-8 assay; type: functional, organism-based; conditions: dose <= 0.25 µg/ml
Staphylococcus aureus [14] = assay: Bacteriostatic activity against methicillin-resistant Staphylococcus aureus USA300 at 1 to 2 times MIC measured upto 24 hrs by time-kill assay; type: functional, organism-based
Listeria monocytogenes [15] = assay: Antibacterial activity against Listeria monocytogenes EGD incubated for 16 to 24 hrs by broth microdilution method; type: functional; conditions: time 16-24 hrs
Klebsiella pneumoniae [16] = assay: Bactericidal activity against Klebsiella pneumoniae E8.31; type: functional
Listeria monocytogenes [17] = assay: Bactericidal activity against Listeria monocytogenes ATCC 19115; type: functional
Staphylococcus aureus [18] = assay: Antibacterial activity against methicillin-resistant Staphylococcus aureus infected in BALB/c mouse wound model assessed as reduction in bacterial load at 20 to 80 mg/kg administered topically on days 0, 3 and 6 measured after 12 days; type: functional, organism-based; conditions: dose 20-80 mg/kg, route top, time 12.0 day
Staphylococcus aureus [19] = assay: Antibacterial activity against methicillin-resistant Staphylococcus aureus MRSA 2 incubated for 16 to 24 hrs by broth microdilution method; type: functional; conditions: time 16-24 hrs
Staphylococcus aureus [20] = assay: Antibacterial activity against methicillin-resistant Staphylococcus aureus MRSA 1 incubated for 16 to 24 hrs by broth microdilution method; type: functional; conditions: Staphylococcus aureus, MRSA 1, time 16-24 hrs; read-out: MIC
Staphylococcus aureus [21] = assay: Bactericidal activity against methicillin-resistant Staphylococcus aureus MRSA 2; type: functional
Listeria monocytogenes [22] = assay: Inhibition of biofilm formation in Listeria monocytogenes EGD incubated for 24 hrs by crystal violet staining based analysis; type: functional, organism-based; conditions: dose <= 0.13 µg/ml
Acinetobacter baumannii [23] = assay: Antibacterial activity against Acinetobacter baumannii ATCC 19606 incubated for 16 to 24 hrs by broth microdilution method; type: functional; conditions: time 16-24 hrs
Acinetobacter baumannii [24] = assay: Bactericidal activity against Acinetobacter baumannii ATCC 19606; type: functional
Klebsiella pneumoniae [25] = assay: Antibacterial activity against Klebsiella pneumoniae ATCC 43816 incubated for 16 to 24 hrs by broth microdilution method; type: functional; conditions: time 16-24 hrs
Staphylococcus aureus [26] = assay: Antibacterial activity against methicillin-resistant Staphylococcus aureus infected in BALB/c mouse wound model assessed as angiogenesis in skin tissue by measuring increase in CD31 expression at 20 to 80 mg/kg administered topically on days 0, 3 and 6 measured after 12 days by IHC analysis; type: functional, organism-based; conditions: dose 20-80 mg/kg, route top, time 12.0 day
Staphylococcus aureus [27] = assay: Antibacterial activity against methicillin-resistant Staphylococcus aureus infected in BALB/c mouse wound model assessed as neovascularization in skin tissue at 20 to 80 mg/kg administered topically on days 0, 3 and 6 measured for 6 to 12 days by H and E staining based analysis; type: functional, organism-based; conditions: dose 20-80 mg/kg, route top, time 6-12 day
Staphylococcus aureus [28] = assay: Induction of ROS accumulation in Staphylococcus aureus USA300 upto 0.25 ug/ml incubated for 1 hr by DCFH-DA dye based analysis; type: functional, organism-based; conditions: dose <= 0.25 µg/ml
A549 = assay: Reversal of Staphylococcus aureus USA300-induced cytotoxicity in human A549 cells infected with bacteria assessed as reduction in number of dead cells at 4 to 8 ug/ml preincubated with compound followed by […] infection for 5 hrs by Calcein AM/Ethidium homodimer-1 dye based analysis; type: functional, cell-based; conditions: dose 4-8 µg/ml
Staphylococcus aureus [29] = assay: Antibacterial activity against methicillin-resistant Staphylococcus aureus infected in BALB/c mouse wound model assessed as organised collagen fibers in skin tissue at 20 to 80 mg/kg administered topically on days 0, 3 and 6 measured for 6 to 12 days by Masson's trichome staining based analysis; type: functional, organism-based; conditions: dose 20-80 mg/kg, route top, time 6-12 day
Klebsiella pneumoniae [30] = assay: Bactericidal activity against Klebsiella pneumoniae ATCC 43816; type: functional
DNA gyrase = DNA gyrase (Staphylococcus aureus, UniProt P0A0K8+P20831); assay: Inhibition of Staphylococcus aureus gyrase; type: protein-complex assay
Staphylococcus aureus [31] = assay: Antibacterial activity against Staphylococcus aureus ATCC 25904 incubated for 16 to 24 hrs by broth microdilution method; type: functional; conditions: time 16-24 hrs
Staphylococcus aureus [32] = assay: Effect on lysine degradation in Staphylococcus aureus USA300 at 4 times MIC by KEGG analysis; type: functional, organism-based
[33] = Hemolytic activity in rabbit RBCs upto 8 ug/ml incubated for 1 hr; type: toxicity, cell-based, Oryctolagus cuniculus; conditions: erythrocyte, dose < 8 µg/ml
Staphylococcus aureus [34] = assay: Antibacterial activity against Staphylococcus aureus USA300 assessed as acceleration of TCA cycle measured by increase in gltA mRNA level upto 0.25 ug/ml incubated for 6 hrs by RT-PCR analysis; type: functional, organism-based; conditions: dose <= 0.25 µg/ml
Staphylococcus aureus [35] = assay: Effect on biosynthesis of co-factors in Staphylococcus aureus USA300 at 4 times MIC by KEGG analysis; type: functional, organism-based
Listeria monocytogenes [36] = assay: Antibacterial activity against Listeria monocytogenes ATCC 19115 incubated for 16 to 24 hrs by broth microdilution method; type: functional; conditions: time 16-24 hrs
Staphylococcus aureus [37] = assay: Disruption of cell membrane integrity in Staphylococcus aureus USA300 assessed as protein leakage at 0.25 ug/ml incubated for 6 hrs MIC by SDS-PAGE analysis; type: functional, organism-based; conditions: dose 0.25 µg/ml
Staphylococcus aureus [38] = assay: Effect on histidine metabolism in Staphylococcus aureus USA300 at 4 times MIC by KEGG analysis; type: functional, organism-based
Listeria monocytogenes [39] = assay: Bactericidal activity against Listeria monocytogenes EGD; type: functional
Staphylococcus aureus [40] = assay: Effect on TCA cycle in Staphylococcus aureus USA300 at 4 times MIC by KEGG analysis; type: functional, organism-based
Staphylococcus aureus [41] = assay: Effect on purine metabolism in Staphylococcus aureus USA300 at 4 times MIC by KEGG analysis; type: functional, organism-based

Chain of DNA gyrase (P0A0K8 whole entry): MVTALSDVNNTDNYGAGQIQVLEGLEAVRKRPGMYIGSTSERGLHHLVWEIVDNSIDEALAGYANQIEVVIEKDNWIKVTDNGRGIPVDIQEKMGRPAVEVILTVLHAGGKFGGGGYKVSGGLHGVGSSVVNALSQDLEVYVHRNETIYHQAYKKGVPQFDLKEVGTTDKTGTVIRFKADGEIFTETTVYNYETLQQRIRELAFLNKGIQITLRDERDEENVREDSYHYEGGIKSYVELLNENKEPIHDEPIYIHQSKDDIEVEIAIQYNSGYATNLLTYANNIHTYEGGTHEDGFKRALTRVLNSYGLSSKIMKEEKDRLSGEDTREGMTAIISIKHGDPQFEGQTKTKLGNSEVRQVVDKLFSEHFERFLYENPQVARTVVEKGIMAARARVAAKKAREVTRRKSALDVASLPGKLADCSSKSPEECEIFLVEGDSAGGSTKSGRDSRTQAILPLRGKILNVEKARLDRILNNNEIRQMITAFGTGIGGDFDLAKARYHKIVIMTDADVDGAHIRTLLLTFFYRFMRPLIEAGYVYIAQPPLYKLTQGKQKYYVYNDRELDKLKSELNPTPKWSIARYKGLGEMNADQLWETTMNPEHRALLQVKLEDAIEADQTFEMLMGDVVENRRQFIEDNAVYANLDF
Chain of DNA gyrase (P20831 whole entry): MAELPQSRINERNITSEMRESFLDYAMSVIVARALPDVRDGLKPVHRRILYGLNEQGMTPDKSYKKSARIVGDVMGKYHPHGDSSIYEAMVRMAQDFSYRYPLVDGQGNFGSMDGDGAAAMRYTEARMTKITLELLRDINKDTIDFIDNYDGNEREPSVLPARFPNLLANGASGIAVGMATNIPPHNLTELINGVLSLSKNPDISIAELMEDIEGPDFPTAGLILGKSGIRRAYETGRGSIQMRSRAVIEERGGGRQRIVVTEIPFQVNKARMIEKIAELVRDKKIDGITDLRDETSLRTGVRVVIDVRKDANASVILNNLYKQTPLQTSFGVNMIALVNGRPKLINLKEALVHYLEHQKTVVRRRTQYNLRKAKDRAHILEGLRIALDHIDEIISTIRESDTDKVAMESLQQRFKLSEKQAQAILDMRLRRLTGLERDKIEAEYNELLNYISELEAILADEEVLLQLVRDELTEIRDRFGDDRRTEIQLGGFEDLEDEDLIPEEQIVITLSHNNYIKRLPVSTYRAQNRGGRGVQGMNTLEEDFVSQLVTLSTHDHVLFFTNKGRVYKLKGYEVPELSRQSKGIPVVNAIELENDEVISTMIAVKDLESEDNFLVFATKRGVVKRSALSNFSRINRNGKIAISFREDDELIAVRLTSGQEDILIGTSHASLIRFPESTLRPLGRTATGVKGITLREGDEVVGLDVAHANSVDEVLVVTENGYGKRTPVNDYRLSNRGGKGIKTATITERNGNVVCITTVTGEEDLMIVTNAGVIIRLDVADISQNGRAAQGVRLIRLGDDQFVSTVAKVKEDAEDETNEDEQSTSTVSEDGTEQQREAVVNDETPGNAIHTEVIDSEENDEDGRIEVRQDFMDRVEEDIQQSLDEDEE

CCn1c(=O)c(C(=O)Nc2nnc(-c3ccc(C)cn3)s2)c(O)c2ccccc21
MIC (Staphylococcus aureus [1]): 0.02 µg/mL (≈ 0.0491 µM) | MBC (Staphylococcus aureus [2]): 0.23 µg/mL (≈ 0.564 µM) | MBC (Staphylococcus aureus [3]): 0.17 µg/mL (≈ 0.417 µM) | MIC (Staphylococcus aureus [4]): 0.03 µg/mL (≈ 0.0736 µM) | MBC (Staphylococcus aureus [5]): 0.15 µg/mL (≈ 0.368 µM) | Activity (Staphylococcus aureus [6]): Active | Activity (Staphylococcus aureus [7]): Active | Activity (Staphylococcus aureus [8]): Active | Activity (Staphylococcus aureus [9]): Active | Activity (Staphylococcus aureus [10]): Active | MIC (Klebsiella pneumoniae [11]): > 512 µg/mL | Activity (Staphylococcus aureus [12]): ~100% | MBC (Escherichia coli): > 512 µg/mL | Activity (Staphylococcus aureus [13]): Active | Activity (Staphylococcus aureus [14]): Active | MIC (Listeria monocytogenes [15]): 0.02 µg/mL (≈ 0.0491 µM) | MBC (Klebsiella pneumoniae [16]): > 512 µg/mL | MBC (Listeria monocytogenes [17]): > 0.25 µg/mL | Activity (Staphylococcus aureus [18]): Active | MIC (Staphylococcus aureus [19]): 0.02 µg/mL (≈ 0.0491 µM) | MIC (Staphylococcus aureus [20]): 0.02 µg/mL (≈ 0.0491 µM) | MBC (Staphylococcus aureus [21]): 0.05 µg/mL (≈ 0.123 µM) | inhibition (Listeria monocytogenes [22]): Dose-dependent-effect | MIC (Acinetobacter baumannii [23]): > 512 µg/mL | MBC (Acinetobacter baumannii [24]): > 512 µg/mL | MIC (Klebsiella pneumoniae [25]): > 512 µg/mL | Activity (Staphylococcus aureus [26]): Active | Activity (Staphylococcus aureus [27]): Active | Activity (Staphylococcus aureus [28]): Active | Activity (A549): Active | Activity (Staphylococcus aureus [29]): Active | MBC (Klebsiella pneumoniae [30]): > 512 µg/mL | IC50 (DNA gyrase): 1190 nM | MIC (Staphylococcus aureus [31]): 0.02 µg/mL (≈ 0.0491 µM) | Activity (Staphylococcus aureus [32]): Active | Activity [33]: Non-toxic | Activity (Staphylococcus aureus [34]): Active | Activity (Staphylococcus aureus [35]): Active | MIC (Listeria monocytogenes [36]): 0.02 µg/mL (≈ 0.0491 µM) | Activity (Staphylococcus aureus [37]): Active | Activity (Staphylococcus aureus [38]): Active | MBC (Listeria monocytogenes [39]): > 0.25 µg/mL | Activity (Staphylococcus aureus [40]): Active | Activity (Staphylococcus aureus [41]): Active
